In one test the target is VR1/TRPV1 receptor (Homo sapiens, UniProt Q8NER1). Briefly: IC50 (human) after pH stimulus. The class given is cell-based. The conditions noted are these: table 4.
In a further test the target is T1, vanilloid receptor (VR1) (Homo sapiens, UniProt Q8NER1).
T1 construct: expressed in transfected cells; host or cells: CHO K1 cells (ECACC), stably transfected
Briefly: FLIPR Ca2+ influx assay on CHO K1 cells transfected with the VR1 gene (pharmacological method II). The format is cell-based. The conditions noted are these: table 4; capsaicin; read-out: Ki (human) Cap.

In test [1] the test system is capsaicin induced hypothermie. Description: Hypothermie assay in the mouse (capsaicin induced hypothermie). The class given is in vivo. The conditions noted are these: mouse, read-out: inhibition hypothermie (n = 5); for inhibition in vivo at 0.1 mg/kg: 0.1 mg/kg body weight po.
Test [2] concerns cold allodynia after chronic constriction injury. Description: Neuropathic pain in mice, Bennet model (chronic constriction injury, cold allodynia). The format is in vivo. The conditions noted are these: mouse. An excerpt: VI. Neuropathic Pain in Mice
The efficacy of compounds of general formula I in the treatment of neuropathic pain is investigated by using the Bennet modell (chronic constriction injury; Bennett and Xie, 1988, Pain 33: 87-107.
NMRI mice (weight 16 to 18 g) under ketavet-rompun anaesthesia are supplied with three loose ligatures of the right nervus ischiaticus. The animals develop an oversensitivity to cold at the position of the pad that is innervated by the injured nerve which—after a recovery period of one week—is quantified over a period of three weeks by using a metal plate that is cooled to 4° C. (cold allodynia). The animals are observed for a period of 2 minutes on this plate and the number of brisk withdrawal reactions of the injured nerve is counted. […] The group size is n=10, the stastical significance of efficacy against allodynia (*=p<0.05) is determined by analysis of variance with repeated measurements and post hoc analysis with Bonferroni adjustment.

Each structure is given as a SMILES string.

Sequence of VR1/TRPV1 receptor (Q8NER1 whole entry): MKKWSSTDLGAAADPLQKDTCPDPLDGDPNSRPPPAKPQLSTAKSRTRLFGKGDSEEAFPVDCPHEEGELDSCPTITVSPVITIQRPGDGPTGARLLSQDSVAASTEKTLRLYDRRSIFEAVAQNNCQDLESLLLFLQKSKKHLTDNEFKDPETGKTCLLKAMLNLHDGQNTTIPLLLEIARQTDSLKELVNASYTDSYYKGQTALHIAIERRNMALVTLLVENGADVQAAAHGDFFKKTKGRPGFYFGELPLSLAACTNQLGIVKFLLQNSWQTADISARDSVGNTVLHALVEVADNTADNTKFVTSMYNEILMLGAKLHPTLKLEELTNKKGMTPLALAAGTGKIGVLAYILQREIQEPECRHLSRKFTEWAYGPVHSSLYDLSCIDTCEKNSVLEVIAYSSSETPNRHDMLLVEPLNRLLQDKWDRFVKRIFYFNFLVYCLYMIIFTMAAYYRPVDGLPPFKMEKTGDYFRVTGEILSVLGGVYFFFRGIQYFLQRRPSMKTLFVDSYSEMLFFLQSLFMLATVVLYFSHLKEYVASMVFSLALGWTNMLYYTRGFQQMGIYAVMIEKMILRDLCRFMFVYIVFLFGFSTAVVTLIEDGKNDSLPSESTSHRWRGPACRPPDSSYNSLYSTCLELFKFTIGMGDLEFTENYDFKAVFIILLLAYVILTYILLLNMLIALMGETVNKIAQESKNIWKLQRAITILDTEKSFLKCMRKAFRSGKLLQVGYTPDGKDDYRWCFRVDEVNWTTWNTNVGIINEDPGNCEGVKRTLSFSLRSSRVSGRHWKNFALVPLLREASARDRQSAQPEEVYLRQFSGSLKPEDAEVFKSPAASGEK
T1 sequence (Q8NER1 whole entry): as above

Turning to `CC(C(=O)NCc1ccc(C(F)(F)F)nc1OCCC(C)(C)C)c1ccc(NS(C)(=O)=O)c(F)c1` (stereo not drawn) [Example 125], the midpoint of inhibition at VR1/TRPV1 receptor, the IC50, lay at 23.8 nM. Further, the inhibition constant (Ki) on vanilloid receptor (VR1) is 0.9 nM. Moreover, the inhibition in vivo at 0.1 mg/kg in test [1] was 5%. In addition, the “inhibition Bennet model (n = 10)” value in test [2] (0.01 mg/kg body weight po) is listed as 0.01 po 17%.

Take `Cc1ccc(Cl)cc1Nc1nc(C(F)(F)F)ccc1CNC(=O)C(C)c1ccc(NS(C)(=O)=O)c(F)c1` (stereo not drawn) [Example 136, N-[2-(5-chloro-2-methyl-phenylamino)-6-trifluoromethyl-pyridin-3-ylmethyl]-2-(3-fluoro-4-methylsulfonamido-phenyl)-propionamide]: it took 140 nM to reach half-maximal inhibition on VR1/TRPV1 receptor (IC50). The inhibition constant (Ki) on vanilloid receptor (VR1) amounted to 14 nM. The inhibition in vivo at 0.3 mg/kg in test [1] (0.3 mg/kg body weight po) came out at 43%. Further, in test [2] (0.01 mg/kg body weight po), the “inhibition Bennet model (n = 10)” value is 0.01 po 13%.

`CC(C(=O)NCc1ccc(C(C)(C)C)nc1OC1CCCC1)c1ccc(NS(C)(=O)=O)c(F)c1` (stereo not drawn) [Example 234, N-(6-tert-butyl-2-cyclopentyloxy-pyridin-3-ylmethyl)-2-(3-fluoro-4-methylsulfonamido-phenyl)-propionamide] gave an IC50 against VR1/TRPV1 receptor of 85.3 nM. Further, the Ki at vanilloid receptor (VR1) is 1.5 nM. The inhibition in vivo at 0.1 mg/kg in test [1] was 19%. The “inhibition Bennet model (n = 10)” value in test [2] (0.001 mg/kg body weight po) is 0.001 po 26%.

For the origin of these results see patent US8710233B2 (Gruenenthal GmbH, priority 2005, dated 2014).
